Data published in ChEMBL document CHEMBL3352581, “Structure-activity relationships of non-opioid [des-Arg(7)]-dynorphin A analogues for bradykinin receptors” (Bioorg Med Chem Lett, 2014).
Where a SMILES comes first, the peptide text is derived from it. [ ]: non-standard residue; d: D form. Nle = CCCC[C@H](N)C(=O)O

Tests used:
[1] = Displacement of [3H]DALKD from bradykinin receptor in rat brain membranes by competition assay at pH 7.4; format: cell membranes, Membrane
[2] = Retention time of the compound by HPLC method; format: physicochemical
[3] = Displacement of [3H]DALKD from bradykinin receptor in rat brain membranes by competition assay; format: cell membranes, Membrane
[4] = Displacement of [3H]DALKD from bradykinin receptor in rat brain membranes by competition assay at pH 6.8; format: cell membranes, Membrane

Compound | IC50 [1] [nM] | Retention_time [2] [min] | IC50 [3] [nM] | pIC50 [3] | pIC50 [1] | pIC50 [4] | IC50 [4] [nM]
CC[C@H](C)[C@H](NC(=O)[C@H](CCCNC(=N)N)NC(=O)[C@H](CC(C)C)NC(=O)[C@@H](N)Cc1ccccc1)C(=O)N[C@@H](CCCNC(=N)N)C(=O)N1CCC[C@H]1C(=O)N[C@@H](CCCCN)C(=O)O | 190 | – | – | – | – | – | –
CCCC[C@H](NC(=O)[C@@H](N)Cc1ccccc1)C(=O)N[C@@H](CCCNC(=N)N)C(=O)N[C@H](C(=O)N[C@@H](CCCNC(=N)N)C(=O)N1CCC[C@H]1C(=O)N[C@@H](CCCCN)C(=O)O)[C@@H](C)CC | – | 10.5 | – | – | – | – | –
CCCC[C@H](NC(=O)[C@H](CCCNC(=N)N)NC(=O)[C@H](CC(C)C)NC(=O)[C@@H](N)Cc1ccccc1)C(=O)N[C@@H](CCCNC(=N)N)C(=O)N1CCC[C@H]1C(=O)N[C@@H](CCCCN)C(=O)O (H-FLR[Nle]RPK-OH) | – | 11.4 | 91 | 7.04 | – | – | –
CCCC[C@H](NC(=O)[C@H](CCCCN)NC(=O)[C@@H]1CCCN1C(=O)[C@H](CCCCN)NC(=O)[C@H](CCCC)NC(=O)[C@H](CCCCN)NC(=O)[C@@H](N)CCCC)C(=O)N[C@@H](CCCCN)C(=O)O (H-[Nle]K[Nle]KPK[Nle]K-OH) | – | – | 91 | 7.04 | – | – | –
H-FLARIRPK-OH | – | 11 | 260 | 6.58 | – | – | –
H-GFLRIRPK-OH | – | 9.5 | – | – | 6.88 | – | –
H-GFLRIRPKLK-OH | – | 10.4 | – | – | 7.39 | 7.58 | –
H-LRAIRPKLK-OH | – | 9.2 | – | 6.91 | – | – | –
H-LRIRPK-OH | – | 6.3 | – | – | 6.74 | 6.71 | –

Now from value to compound:

IC50 [1] [nM] | Retention_time [2] [min] | IC50 [3] [nM] | pIC50 [3] | pIC50 [1] | pIC50 [4] | IC50 [4] [nM] | Compound
– | – | 87 | 7.06 | – | – | – | CCCC[C@H](NC(=O)[C@H](CCCNC(=N)N)NC(=O)[C@H](CCCC)NC(=O)[C@@H](N)Cc1ccccc1)C(=O)N[C@@H](CCCNC(=N)N)C(=O)N1CCC[C@H]1C(=O)N[C@@H](CCCNC(=N)N)C(=O)O (H-F[Nle]R[Nle]RPR-OH)
– | 7 | – | – | 5.03 | 5.66 | – | CC[C@H](C)[C@H](NC(=O)[C@H](CCCNC(=N)N)NC(=O)[C@@H](N)CC(C)C)C(=O)N[C@@H](CCCNC(=N)N)C(=O)O (H-LRIR-OH)
– | 10.3 | 740 | 6.13 | – | – | – | H-FLRAIRP-OH
– | 9.6 | – | – | 5.67 | 6.12 | – | H-FLRIR-OH
– | 9.7 | – | – | 6.95 | 7.2 | – | H-FLRIRPKLK-OH
– | – | 74 | 7.13 | – | – | – | H-FLRIRRPK-OH
– | 8.2 | – | – | 6.21 | 6.56 | – | H-GFLRIR-OH
– | 10.4 | – | – | – | 7.39 | – | H-GGFLRIRPKLK-OH
– | 9.2 | – | 6.99 | – | – | – | H-LARIRPKLK-OH
68 | – | – | – | 7.17 | 7.52 | 30 | H-LRIRPKLK-OH
